{
  "source": "ChEMBL document CHEMBL4304811",
  "about": "“Development of a Water-Soluble Indolylmaleimide Derivative IM-93 Showing Dual Inhibition of Ferroptosis and NETosis” (ACS Med Chem Lett, 2019)",
  "key": {"[1]": {"target": "Serine/threonine-protein kinase D3 (Homo sapiens) (UniProt O94806)", "assay": "Binding affinity to wild-type human partial length PRKD3 (S543 to E863 residues) expressed in bacterial expression system assessed as residual binding level at 10 uM by Kinomescan method relative to control"}, "[2]": {"target": "Serine/threonine-protein kinase D1 (Homo sapiens) (UniProt Q15139)", "assay": "Binding affinity to wild-type human partial length PRKD1 (G551 to E870 residues) expressed in bacterial expression system assessed as residual binding level at 10 uM by Kinomescan method relative to control"}, "[3]": {"target": "Tyrosine-protein kinase TXK (Homo sapiens) (UniProt P42681)", "assay": "Binding affinity to wild-type human partial length TXK (L238 to W527 residues) expressed in bacterial expression system assessed as residual binding level at 10 uM by Kinomescan method relative to control"}, "[4]": {"target": "Serine/threonine-protein kinase 10 (Homo sapiens) (UniProt O94804)", "assay": "Binding affinity to wild-type human partial length LOK (E16 to V314 residues) expressed in bacterial expression system assessed as residual binding level at 10 uM by Kinomescan method relative to control"}, "[5]": {"target": "Insulin receptor (Homo sapiens) (UniProt P06213)", "assay": "Binding affinity to wild-type human partial length INSR (P997 to E1318 residues) expressed in mammalian expression system assessed as residual binding level at 10 uM by Kinomescan method relative to control"}, "[6]": {"tested_on": "Fibroblast growth factor receptor 3 (Homo sapiens), P22607 [G697C]", "assay": "Binding affinity to human partial length FGFR3 G697C mutant (R442 to S771 residues) expressed in bacterial expression system assessed as residual binding level at 10 uM by Kinomescan method relative to control"}, "[7]": {"target": "Cyclin-dependent kinase 3 (Homo sapiens) (UniProt Q00526)", "assay": "Binding affinity to wild-type human full length CDK3 (M1 to H305 residues) expressed in bacterial expression system assessed as residual binding level at 10 uM by Kinomescan method relative to control"}, "[8]": {"target": "Myosin light chain kinase family member 4 (Homo sapiens) (UniProt Q86YV6)", "assay": "Binding affinity to wild-type human partial length MYLK4 (V79 to S380 residues) expressed in bacterial expression system assessed as residual binding level at 10 uM by Kinomescan method relative to control"}, "[9]": {"target": "Rho-associated protein kinase 2 (Homo sapiens) (UniProt O75116)", "assay": "Binding affinity to wild-type human partial length ROCK2 (M1 to T431 residues) expressed in mammalian expression system assessed as residual binding level at 10 uM by Kinomescan method relative to control"}, "[10]": {"target": "Proto-oncogene tyrosine-protein kinase ROS (Homo sapiens) (UniProt P08922)", "assay": "Binding affinity to wild-type human partial length ROS1 (A1921 to N2240 residues) expressed in bacterial expression system assessed as residual binding level at 10 uM by Kinomescan method relative to control"}, "[11]": {"target": "Aurora kinase A (Homo sapiens) (UniProt O14965)", "assay": "Binding affinity to wild-type human partial length AURKA (E122 to K401 residues) expressed in mammalian expression system assessed as residual binding level at 10 uM by Kinomescan method relative to control"}, "[12]": {"target": "Serine/threonine-protein kinase ICK (Homo sapiens) (UniProt Q9UPZ9)", "assay": "Binding affinity to wild-type human partial length ICK (M1 to P314 residues) expressed in mammalian expression system assessed as residual binding level at 10 uM by Kinomescan method relative to control"}, "[13]": {"target": "Serine/threonine-protein kinase MRCK alpha (Homo sapiens) (UniProt Q5VT25)", "assay": "Binding affinity to wild-type human partial length MRCKA (L57 to V418 residues) expressed in bacterial expression system assessed as residual binding level at 10 uM by Kinomescan method relative to control"}, "[14]": {"target": "Cyclin-dependent kinase 17 (Homo sapiens) (UniProt Q00537)", "assay": "Binding affinity to wild-type human full length PCTK2 (M1 to F523 residues) expressed in bacterial expression system assessed as residual binding level at 10 uM by Kinomescan method relative to control"}, "[15]": {"target": "Eukaryotic translation initiation factor 2-alpha kinase 1 (Homo sapiens) (UniProt Q9BQI3)", "assay": "Binding affinity to wild-type human partial length EIF2AK1 (Q147 to E603 residues) expressed in mammalian expression system assessed as residual binding level at 10 uM by Kinomescan method relative to control"}, "[16]": {"tested_on": "Tyrosine-protein kinase ABL1 (Homo sapiens), P00519 [M351T]", "assay": "Binding affinity to human phosphorylated ABL1 M351T mutant (S229 to K512 residues) expressed in mammalian expression system assessed as residual binding level at 10 uM by Kinomescan method relative to control"}, "[17]": {"target": "Ribosomal protein S6 kinase beta-1 (Homo sapiens) (UniProt P23443)", "assay": "Binding affinity to wild-type human partial length S6K1 (M1 to S421 residues) expressed in mammalian expression system assessed as residual binding level at 10 uM by Kinomescan method relative to control"}, "[18]": {"tested_on": "Mast/stem cell growth factor receptor Kit (Homo sapiens), P10721 [D816V]", "assay": "Binding affinity to human partial length KIT D816V mutant (I571 to D952 residues) expressed in bacterial expression system assessed as residual binding level at 10 uM by Kinomescan method relative to control"}, "[19]": {"target": "Mitogen-activated protein kinase kinase kinase 10 (Homo sapiens) (UniProt Q02779)", "assay": "Binding affinity to wild-type human partial length MLK2 (V52 to W380 residues) expressed in bacterial expression system assessed as residual binding level at 10 uM by Kinomescan method relative to control"}, "[20]": {"target": "Casein kinase II subunit alpha' (Homo sapiens) (UniProt P19784)", "assay": "Binding affinity to wild-type human full length CSNK2A2 (M1 to R350 residues) expressed in mammalian expression system assessed as residual binding level at 10 uM by Kinomescan method relative to control"}, "[21]": {"target": "Serine/threonine-protein kinase VRK2 (Homo sapiens) (UniProt Q86Y07)", "assay": "Binding affinity to wild-type human partial length VRK2 (M1 to T336 residues) expressed in mammalian expression system assessed as residual binding level at 10 uM by Kinomescan method relative to control"}, "[22]": {"target": "Serine/threonine-protein kinase BRSK1 (Homo sapiens) (UniProt Q8TDC3)", "assay": "Binding affinity to wild-type human partial length BRSK1 (M1 to E754 residues) expressed in bacterial expression system assessed as residual binding level at 10 uM by Kinomescan method relative to control"}, "[23]": {"target": "Serine/threonine-protein kinase Nek5 (Homo sapiens) (UniProt Q6P3R8)", "assay": "Binding affinity to wild-type human partial length NEK5 (M1 to M279 residues) expressed in bacterial expression system assessed as residual binding level at 10 uM by Kinomescan method relative to control"}, "[24]": {"target": "Serine/threonine-protein kinase Nek4 (Homo sapiens) (UniProt P51957)", "assay": "Binding affinity to wild-type human full length NEK4 (M1 to F841 residues) expressed in mammalian expression system assessed as residual binding level at 10 uM by Kinomescan method relative to control"}},
  "data": [
    {"smiles": "CC(C)N1C(=O)C(NCCCN(C)C)=C(c2cn(C)c3ccccc23)C1=O.Cl", "values": [
      {"measurement": "Activity", "setting": "[1]", "result": 91, "unit": "%"},
      {"measurement": "Activity", "setting": "[2]", "result": 96, "unit": "%"},
      {"measurement": "Activity", "setting": "[3]", "result": 88, "unit": "%"},
      {"measurement": "Activity", "setting": "[4]", "result": 88, "unit": "%"},
      {"measurement": "Activity", "setting": "[5]", "result": 100, "unit": "%"},
      {"measurement": "Activity", "setting": "[6]", "result": 79, "unit": "%"},
      {"measurement": "Activity", "setting": "[7]", "result": 99, "unit": "%"},
      {"measurement": "Activity", "setting": "[8]", "result": 100, "unit": "%"},
      {"measurement": "Activity", "setting": "[9]", "result": 100, "unit": "%"},
      {"measurement": "Activity", "setting": "[10]", "result": 87, "unit": "%"},
      {"measurement": "Activity", "setting": "[11]", "result": 90, "unit": "%"},
      {"measurement": "Activity", "setting": "[12]", "result": 81, "unit": "%"},
      {"measurement": "Activity", "setting": "[13]", "result": 98, "unit": "%"},
      {"measurement": "Activity", "setting": "[14]", "result": 99, "unit": "%"},
      {"measurement": "Activity", "setting": "[15]", "result": 82, "unit": "%"},
      {"measurement": "Activity", "setting": "[16]", "result": 93, "unit": "%"},
      {"measurement": "Activity", "setting": "[17]", "result": 77, "unit": "%"},
      {"measurement": "Activity", "setting": "[18]", "result": 94, "unit": "%"},
      {"measurement": "Activity", "setting": "[19]", "result": 83, "unit": "%"},
      {"measurement": "Activity", "setting": "[20]", "result": 78, "unit": "%"},
      {"measurement": "Activity", "setting": "[21]", "result": 95, "unit": "%"},
      {"measurement": "Activity", "setting": "[22]", "result": 85, "unit": "%"},
      {"measurement": "Activity", "setting": "[23]", "result": 100, "unit": "%"},
      {"measurement": "Activity", "setting": "[24]", "result": 96, "unit": "%"}
    ]}
  ]
}
